Results taken from patent US10106523B2, “Amide compound” (ASTELLAS PHARMA INC., priority 2014, dated 2018).
pIC50: −log10 of the molar value.

Molecular target: T1, rat EP3 receptor (Rattus norvegicus, UniProt P34980)
T1 construct: expressed in transfected cells
T1 sequence (P34980 1-365): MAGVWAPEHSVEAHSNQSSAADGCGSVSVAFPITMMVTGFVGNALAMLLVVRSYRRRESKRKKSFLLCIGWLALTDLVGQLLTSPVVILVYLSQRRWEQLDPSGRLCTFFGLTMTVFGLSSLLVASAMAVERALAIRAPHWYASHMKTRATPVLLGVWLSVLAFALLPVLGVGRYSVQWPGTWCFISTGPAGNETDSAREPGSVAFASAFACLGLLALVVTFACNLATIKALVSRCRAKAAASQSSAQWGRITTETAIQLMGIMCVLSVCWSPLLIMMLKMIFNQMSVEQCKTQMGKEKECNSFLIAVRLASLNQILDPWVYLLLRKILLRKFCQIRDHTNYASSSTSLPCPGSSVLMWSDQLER
Test: Selectivity test: antagonistic action on rat EP3 receptor (intracellular Ca2+, HEK-293 cells)
Type: cell-based
Conditions: PGE2 100 nmol/L, HEK-293 cells stably expressing rat EP3; read-out: Concentration up to which no inhibitory action of 50% or more on the increase in intracellular Ca2+ concentration due to PGE2 through the rat EP3 receptor
Experimental: Test Example 9: Evaluation Test of Receptor Antagonistic Action on Rat EP1/EP2/EP3 Receptor (Selectivity Test)
The antagonistic action of Compound A on other subtypes ([…], EP2, and EP3) of the rat-derived PGE2 receptor was evaluated. For EP1 and EP3, the intracellular Ca^2+ amount was used as an indicator, and for EP2, the intracellular cAMP amount was used as an indicator, so as to investigate the action of the test compound.
Construction of Rat EP1, EP2, or EP3 Receptor Expressing Vector: A rat EP1 receptor gene (GenBank accession No.: D88751.1), a rat EP2 receptor gene (GenBank accession No.: NM_031088.1), or a rat EP3 receptor gene (GenBank accession No.: NM_012704.1) were inserted respectively into an expression vector pcDNA3.1-V5-His-TOPO (Invitrogen Inc.).
Construction of Cell Stably Expressing Rat EP1, EP2, or EP3 Receptor: […]
The intracellular Ca^2+ concentration was measured using FLIPR tetra (Molecular Devices, LLC.) with the fluorescence intensity of the Dye as an indicator. […] By taking the Ca^2+ concentration when PGE2 was added to a final concentration of 100 nmol/L as 100%, and taking the Ca^2+ concentration when PGE2 was not added as 0%, the Ca^2+ concentration in percentage with a treatment with the compound was calculated.

Cc1nn(Cc2cc3ccccc3cn2)c(C(=O)N[C@@H](C)c2ccc(C(=O)O)cc2)c1Br [Compound A, 4-[(1S)-1-({[4-bromo-1-(isoquinolin-3-ylmethyl)-3-methyl-1H-pyrazol-5-yl]carbonyl}amino)ethyl]benzoic acid]
pIC50: < 5.00
